# Article PMC11548477, “Cathepsin B- and L-like Protease Activities Are Induced During Developmental Barley Leaf Senescence” (Plants, 2024)
# Read-outs that look alike come from different tables or passages of the source. Where a SMILES comes first, the peptide text is derived from it. [ ]: non-standard residue; d: D form. The star is where a group is joined. Sta = CC(C)C[C@H](N)[C@@H](O)CC(=O)O; Isovaleryl = CC(C)CC(=O)*
# Key:
# [1] = test system: cathepsin B-like activity (Z-RR-AMC cleavage) in crude protein extract from barley leaves; assay: Z-RR-AMC cleavage by crude protein extract from barley leaves; format: biochemical, Hordeum vulgare
# Description: (§1) Frozen leaves were homogenized with a pre-chilled pestle and mortar in cold extraction buffer (0.1 M Tris–HCl, pH 7.4, 2 mM DTT) at a ratio of 167 mg of leaves:1 mL buffer. The homogenate was centrifugated at 20,000× g for 30 min at 4 °C. The supernatant, which was kept in an ice bath, was used as a sample for measurements of peptidase activity and protein content.
# (§2) Fluorogenic substrates Z-FR-AMC to determine cathepsin B- and L-like activity, and Z-RR-AMC to determine cathepsin B-like activity, were used. These substrates show fluorescence when AMC is released as a consequence of the hydrolysis of the Arg-AMC bond. The emitted fluorescence was detected with a SpectraMax M2 microplate reader (Molecular Devices, San Jose, CA, USA) with λex = 360 nm and λem = 460 nm. Before use, the substrates were dissolved in DMSO at 10 mM and frozen at −20 °C. The measurements were made in 96-well black microplates (PerkinElmer Inc, Waltham, MA, USA), and each well contained a 100 μL final volume of an appropriate 0.1 M buffer with DTT (2 mM), extract (1.6 mg of fresh weight), and substrate (25 μM). The reaction was initiated by the addition of the substrate. The final concentration of DMSO in microplate wells was 1% in all the assays. The assays were conducted at room temperature, and relative fluorescence readings were recorded over a period of 10 min.
# (§3) For the inhibition assays, an inhibitor (1 µL of stock solution in DMSO) at different concentrations was added to the reaction mixture. For all inhibitors tested, the concentration of inhibitor that caused 50% inhibition of the enzymatic reaction (IC50) was calculated by plotting % inhibition against the logarithm of inhibitor concentration (at least six points). The data are presented as the mean values of at least three independent experiments.
# [2] = test system: cathepsin B- and L-like activity (Z-FR-AMC cleavage) in crude protein extract from barley leaves; assay: Z-FR-AMC cleavage by crude protein extract from barley leaves; format: biochemical, Hordeum vulgare
# Description: as §1, §2, §3
# [3] = test system: 43 kDa DCG-04-labeled cysteine protease band (cathepsin L-like protease or proteases); assay: inhibition of DCG-04 binding (activity-based labeling), 43 kDa band; design: species or system Hordeum vulgare; settings: 2.5 μM DCG-04, pH 5.5, 3 h, week-4 leaf extract; for IC50: densitometric analysis of blots
# Description: (§4) The protein extracts of barley leaves obtained 4 weeks after flowering were preincubated with different concentrations of the inhibitors and proteins were labeled with 2.5 μM DCG-04 at pH 5.5 for 3 h. DMSO (solvent for inhibitors) was used as a control.
# (§5) Densitometric analysis was based on 2 blots (mean values ± S.D.); data were normalized to the control value (DMSO solvent without inhibitor). The chemical structures of the inhibitors and calculated values of iLogP are shown on the right side of the figure.
# (§6) Protein extracts from barley leaves (67 mg of fresh weight) were incubated with 2.5 μM DCG-04 in 0.1 M citrate buffer, pH 5.5, containing 2 mM DTT. When cysteine protease inhibitors E-64 and CA-074 were used, extracts were preincubated with the inhibitors for 10 min before addition of DCG-04. […] After the incubation, reactions were stopped and proteins were precipitated with inclusion of 100 mM NaCl, along with 80% acetone for rapid precipitation. The pellets were mixed with Laemmli loading buffer and boiled for 5 min [63]. Proteins were then separated on ready-made ExpressPlus^TM 4–12% acrylamide gels (GenScript Inc., Piscataway, NJ, USA) in Tris-MOPS SDS-PAGE Running Buffer (GenScript). After SDS-PAGE, proteins were transblotted onto nitrocellulose membrane (BioTrace™ NT nitrocellulose transfer membrane, Cytiva Life Sciences, Marlborough, MA, USA) and blocked for 1 h in 5% non-fat milk in 20 mM Tris-buffered saline (150 mM NaCl), pH 7.4, containing 0.1% Tween-20 (TBST). The membranes were washed 3 × 10 min in TBST and then incubated with streptavidin-HRP (dilution 1:2000 in 1% non-fat milk in TBST) for 1 h and washed again 3 × 10 min in TBST. The membranes were developed using the SuperSignal™ West Pico PLUS Chemiluminescent Substrate (Thermo Scientific, Rockford, IL, USA) and images were obtained using GeneTools by Syngene on a GeneSys imaging platform (Syngene, Frederick, MD, USA). Luminescent signal intensity was calculated by raw volume using GeneTools analysis Version 4.0 software from Syngene.
# [4] = test system: caseinolytic protease activity of extract obtained from week-4 barley leaves; assay: caseinolytic (total) protease activity with casein-FITC in barley leaf extract; format: biochemical, Hordeum vulgare; settings: casein-FITC substrate; extract of week-4 barley leaves; pH 7.4
# Description: as §1, §3
# [5] = test system: aminopeptidase B and cathepsin H-like activity (R-AMC cleavage) in crude protein extract from barley leaves; assay: R-AMC cleavage by crude protein extract from barley leaves; format: biochemical, Hordeum vulgare; settings: for inhibition of R-AMC cleavage / IC50: week-3 leaf extract; for concentration up to which no activity on R-AMC cleavage was seen: week-3 leaf samples
# [6] = test system: 38 kDa DCG-04-labeled cysteine protease band (cathepsin B-like protease(s)); assay: inhibition of DCG-04 binding (activity-based labeling), 38 kDa band; design: species or system Hordeum vulgare; settings: 2.5 μM DCG-04, pH 5.5, 3 h, week-4 leaf extract; for IC50: densitometric analysis of blots
# Description: as §4, §5, §6
# aleurain = test system: aleurain; design: method as in PMID 16669011; settings: 10 μM leupeptin; cited from earlier work
# [7] = test system: aminopeptidase in barley extracts; design: method as in PMID 10681066, PMID 21787929; settings: cited from earlier work
# [8] = test system: aminopeptidase in alfalfa extracts; design: method as in PMID 10681066, PMID 21787929; settings: cited from earlier work
# [9] = pH 5.5, week-4 leaf extract, read-out: IC50, Z-RR-AMC cleavage
# [10] = pH 7.4, week-4 leaf extract, read-out: IC50, Z-RR-AMC cleavage
# [11] = pH 5.5, week-4 leaf extract, read-out: IC50, Z-FR-AMC cleavage
# [12] = pH 7.4, week-4 leaf extract, read-out: IC50, Z-FR-AMC cleavage
# [13] = pH 5.5, 'No inhibition up to X' given as > X
# [14] = pH 7.4, 'No inhibition up to X' given as > X
# [15] = pH 7.4, week-4 leaf extract, 'No inhibition up to X' given as > X, read-out: IC50, Z-FR-AMC cleavage
# [16] = pH 7.4, week-4 leaf extract, 'No inhibition up to X' given as > X, read-out: IC50, Z-RR-AMC cleavage
SMILES,concentration that totally blocks DCG-04 binding to the 43 kDa band [3],IC50 [3],"IC50 [1, 9]","IC50 [1, 10]","IC50 [2, 11]","IC50 [2, 12]","IC50 [2, 15]","IC50 [1, 16]","IC50 [5, 14]",further results
CCOC(=O)[C@H]1O[C@@H]1C(=O)N[C@@H](CC(C)C)C(=O)N[C@@H](Cc1ccc(O)cc1)C(=O)NCCCCCC(=O)N[C@@H](CCCCNC(=O)CCCC[C@@H]1SC[C@@H]2NC(=O)N[C@@H]21)C(N)=O [DCG-04],,,,,,,,,,"IC50 ([1]; preliminary experiments, barley leaf extracts, pH not stated, read-out: IC50, proteolytic activity with Z-RR-AMC): 1.8 ± 0.4 µM; IC50 ([2]; preliminary experiments, barley leaf extracts, pH not stated, read-out: IC50, proteolytic activity with Z-FR-AMC): 1.8 ± 0.4 µM"
"CCCNC(=O)[C@H]1O[C@@H]1C(=O)N[C@H](C(=O)N1CCC[C@H]1C(=O)O)[C@@H](C)CC [CA-074, (2S)-1-[(2S,3S)-3-methyl-2-[[(2S,3S)-3-(propylcarbamoyl)oxirane-2-carbonyl]amino]pentanoyl]pyrrolidine-2-carboxylic acid]",> 100 µM,26.4 ± 2.8 µM,22.7 ± 5.3 µM,80.7 ± 12.4 µM,11.3 ± 2.2 µM,31 ± 5.6 µM,,,> 200 µM,"IC50 [5, 13]: > 200 µM; concentration up to which no activity on R-AMC cleavage was seen ([5]; pH not given): > 0.2 mM; IC50 [6]: 1.8 ± 0.6 µM"
"O=S(=O)(F)Cc1ccccc1 [PMSF, Phenylmethylsulfonyl fluoride]",,,,,,,> 2000 µM,,> 2000 µM,"inhibition of Z-RR-AMC cleavage ([1]; at 2 mM, pH 7.4, week-4 leaf extract): 30% inhibition at 2 mM"
CC(=O)N[C@@H](CC(C)C)C(=O)N[C@@H](CC(C)C)C(=O)N[C@H](C=O)CCCNC(=N)N [Leupeptin],,,,,,,,610 ± 30 µM,> 400 µM,"inhibition of aleurain (aleurain): ~ 75%; inhibition of Z-FR-AMC cleavage ([2]; at 0.4 mM, pH 7.4, week-4 leaf extract): 30% inhibition at 0.4 mM"
CC(C)C[C@H](NC(=O)[C@@H](O)[C@H](N)Cc1ccccc1)C(=O)O [Bestatin],,,,,,,> 1000 µM,> 1000 µM,580 ± 120 µM,concentration required for complete inhibition of aminopeptidase [7]: 0.1 mM; concentration required for complete inhibition of aminopeptidase [8]: 0.1 mM
"c1cnc2c(c1)ccc1cccnc12 [1,10-Phenanthroline]",,,,,,,,,,"IC50 ([5]; pH not given): 560 ± 110 µM; IC50 ([1]; pH not given, week-4 leaf extract, read-out: IC50, Z-RR-AMC cleavage): 3100 ± 200 µM; IC50 ([2]; pH not given, week-4 leaf extract, read-out: IC50, Z-FR-AMC cleavage): 8900 ± 300 µM"

# The next lines start with results.
concentration that totally blocks DCG-04 binding to the 43 kDa band [3],IC50 [3],"IC50 [1, 9]","IC50 [1, 10]","IC50 [2, 11]","IC50 [2, 12]","IC50 [2, 15]","IC50 [1, 16]",SMILES,"IC50 [5, 14]",further results
1 µM,0.048 ± 0.0122 µM,0.0062 ± 0.0017 µM,0.0081 ± 0.0019 µM,0.0123 ± 0.0028 µM,0.0245 ± 0.0042 µM,,,"CC(C)C[C@H](NC(=O)[C@H]1O[C@@H]1C(=O)O)C(=O)NCCCCNC(=N)N [E-64, trans-epoxysuccinyl-L-leucylamido-(4-guanidino) butane]",,"IC50 [4]: 0.0644 ± 0.0031 µM; inhibition of R-AMC cleavage ([5]; at 0.2–200 µM, pH 7.4): 20–25% inhibition at 0.2–200 µM; inhibition of R-AMC cleavage ([5]; at 1–200 µM, pH 5.5): 40–45% inhibition at 1–200 µM; concentration that totally blocks DCG-04 binding to the 38 kDa band [6]: 1 µM; IC50 [6]: 0.0464 ± 0.0091 µM"
> 6 µM,0.29 ± 0.11 µM,0.0906 ± 0.0122 µM,0.0116 ± 0.0035 µM,0.12 ± 0.0143 µM,0.0117 ± 0.0026 µM,,,"O=C(NCc1ccccc1)C(Cc1ccccc1)NC(=O)C1OC1C(=O)NCCc1ccc(O)cc1 [CAA0225, (2S,3S)-oxirane-2,3-dicarboxylic acid 2-[((S)-1-benzylcarbamoyl-2-phenyl-ethyl)-amide] 3-{[2-(4-hydroxy-phenyl)-ethyl]-amide}]",> 200 µM,"IC50 [5, 13]: > 200 µM; concentration up to which no activity on R-AMC cleavage was seen ([5]; pH not given): > 0.2 mM; effect on DCG-04 binding to the 38 kDa band [6]: did not block binding"
,,,,,,> 200 µM,> 200 µM,CC(C)CC(=O)N[C@H](C(=O)N[C@H](C(=O)N[C@@H](CC(C)C)[C@@H](O)CC(=O)N[C@@H](C)C(=O)N[C@@H](CC(C)C)[C@@H](O)CC(=O)O)C(C)C)C(C)C [Pepstatin A] (Isovaleryl-VV[Sta]A[Sta]-OH),> 200 µM,
